Some results are limits rather than exact numbers.

This assay concerns the target T1, KRAS^G12C::SOS1 (Homo sapiens, UniProt Q07889).
T1 sequence (Q07889 1-1333): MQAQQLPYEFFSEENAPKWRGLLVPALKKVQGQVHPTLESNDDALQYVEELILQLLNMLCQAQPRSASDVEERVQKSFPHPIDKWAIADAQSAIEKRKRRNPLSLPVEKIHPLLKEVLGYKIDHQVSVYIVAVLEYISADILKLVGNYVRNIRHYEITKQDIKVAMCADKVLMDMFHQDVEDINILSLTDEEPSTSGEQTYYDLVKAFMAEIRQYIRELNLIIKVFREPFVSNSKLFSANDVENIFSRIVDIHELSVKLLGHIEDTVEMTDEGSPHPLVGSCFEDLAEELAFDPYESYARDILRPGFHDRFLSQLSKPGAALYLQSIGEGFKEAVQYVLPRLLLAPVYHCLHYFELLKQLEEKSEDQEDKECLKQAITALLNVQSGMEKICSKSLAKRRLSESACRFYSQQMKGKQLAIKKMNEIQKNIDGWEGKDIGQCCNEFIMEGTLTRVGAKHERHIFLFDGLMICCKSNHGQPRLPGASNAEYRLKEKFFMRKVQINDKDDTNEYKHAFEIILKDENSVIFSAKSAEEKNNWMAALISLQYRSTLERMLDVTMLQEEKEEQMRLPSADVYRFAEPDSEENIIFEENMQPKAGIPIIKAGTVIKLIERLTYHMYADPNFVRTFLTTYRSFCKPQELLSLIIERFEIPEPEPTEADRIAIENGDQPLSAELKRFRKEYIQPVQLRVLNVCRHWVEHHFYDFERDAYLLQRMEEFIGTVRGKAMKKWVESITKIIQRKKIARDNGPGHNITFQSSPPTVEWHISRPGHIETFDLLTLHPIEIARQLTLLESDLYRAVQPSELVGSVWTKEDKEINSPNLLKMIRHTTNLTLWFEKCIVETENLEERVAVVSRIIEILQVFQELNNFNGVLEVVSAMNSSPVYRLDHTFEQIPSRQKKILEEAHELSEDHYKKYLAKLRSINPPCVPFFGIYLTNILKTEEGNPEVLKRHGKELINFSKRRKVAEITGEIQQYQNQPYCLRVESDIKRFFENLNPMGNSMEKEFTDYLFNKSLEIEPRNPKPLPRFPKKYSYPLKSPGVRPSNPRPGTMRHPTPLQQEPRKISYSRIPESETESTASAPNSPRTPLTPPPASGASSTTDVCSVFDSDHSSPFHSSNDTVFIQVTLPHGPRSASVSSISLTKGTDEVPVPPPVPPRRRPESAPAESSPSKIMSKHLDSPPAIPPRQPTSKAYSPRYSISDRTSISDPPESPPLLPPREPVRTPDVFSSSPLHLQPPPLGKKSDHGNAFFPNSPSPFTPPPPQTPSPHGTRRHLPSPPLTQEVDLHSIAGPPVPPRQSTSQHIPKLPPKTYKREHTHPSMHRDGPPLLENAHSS
Kind of assay: KRAS G12C::SOS1 protein-protein interaction (PPI) inhibition assay (HTRF binding kit).
Consider `C[C@@H](NC(=O)c1ccc(=O)n(-c2cccc(-c3cnnn3C)c2F)n1)c1cc(N)cc(C(F)(F)F)c1` [Example 359, N-[(1R)-1-[3-amino-5-(trifluoromethyl)phenyl]ethyl]-1-[2-fluoro-3-(3-methyltriazol-4-yl)phenyl]-6-oxo-pyridazine-3-carboxamide], for which the IC50 was below 1000 nM.
In turn, `C[C@@H](NC(=O)c1ccc(=O)n(-c2cccnc2F)n1)c1cc(N)cc(C(F)(F)F)c1` [Example 360, N-[(1R)-1-[3-amino-5-(trifluoromethyl)phenyl]ethyl]-1-(2-fluoro-3-pyridyl)-6-oxo-pyridazine-3-carboxamide] returned an IC50 below 1000 nM.
On to `C[C@@H](NC(=O)c1ccc(=O)n(-c2ccncc2F)n1)c1cccc(C(F)(F)CO)c1F` [Example 361, N-[(1R)-1-[3-(1,1-difluoro-2-hydroxy-ethyl)-2-fluoro-phenyl]ethyl]-1-(3-fluoro-4-pyridyl)-6-oxo-pyridazine-3-carboxamide], for which the IC50 is below 1000 nM.
In turn, `C[C@@H](NC(=O)c1ccc(=O)n(-c2ccc(F)cc2F)n1)c1cc(N)cc(C(F)(F)F)c1` [Example 362, N-[(1R)-1-[3-amino-5-(trifluoromethyl)phenyl]ethyl]-1-(2,4-difluorophenyl)-6-oxo-pyridazine-3-carboxamide] gave a concentration for half-maximal inhibition (IC50) below 1000 nM.
Next, `C[C@@H](NC(=O)c1nn(-c2ccccc2F)c(=O)cc1O)c1cc(N)cc(C(F)(F)F)c1` [Example 363, N-[(1R)-1-[3-amino-5-(trifluoromethyl)phenyl]ethyl]-1-(2-fluorophenyl)-4-hydroxy-6-oxo-pyridazine-3-carboxamide]: above 10000 nM; `C[C@@H](NC(=O)c1nn(-c2ccccc2F)c(=O)cc1OCc1ccccc1)c1cccc(C(F)(F)CO)c1F` [Example 364, 4-benzyloxy-N-[(1R)-1-[3-(1,1-difluoro-2-hydroxy-ethyl)-2-fluorophenyl]ethyl]-1-(2-fluorophenyl)-6-oxo-pyridazine-3-carboxamide]: 1000 to 10000 nM.
`C[C@@H](NC(=O)c1nn(-c2ccccc2F)c(=O)cc1O)c1cccc(C(F)(F)CO)c1F` [Example 365, N-[(1R)-1-[3-(1,1-difluoro-2-hydroxy-ethyl)-2-fluoro-phenyl]ethyl]-1-(2-fluorophenyl)-4-hydroxy-6-oxo-pyridazine-3-carboxamide] registered an IC50 above 10000 nM.
The same measure for `COc1ccc(-n2nc(C(=O)N[C@H](C)c3cccc(C(F)(F)CO)c3F)c(C3CC3)cc2=O)c(F)c1` [Example 366, 4-cyclopropyl-N-[(1R)-1-[3-(1,1-difluoro-2-hydroxy-ethyl)-2-fluorophenyl]ethyl]-1-(2-fluoro-4-methoxy-phenyl)-6-oxopyridazine-3-carboxamide]: 1000 to 10000 nM; for `COc1ccc(-n2nc(C(=O)N[C@H](C)c3cc(N)cc(C(F)(F)F)c3)c(C3CC3)cc2=O)c(F)c1` [Example 367, N-[(1R)-1-[3-amino-5-(trifluoromethyl)phenyl]ethyl]-4-cyclopropyl-1-(2-fluoro-4-methoxy-phenyl)-6-oxo-pyridazine-3-carboxamide]: 1000 to 10000 nM.
Compound `C[C@@H](NC(=O)c1nn(-c2ccccc2)c(=O)cc1-c1ccccc1)c1cc(N)cc(C(F)(F)F)c1` [Example 368, N-[(1R)-1-[3-amino-5-(trifluoromethyl)phenyl]ethyl]-6-oxo-1,4-diphenyl-pyridazine-3-carboxamide] displayed a 50% inhibitory concentration (IC50) below 1000 nM.
Take `C[C@@H](NC(=O)c1ccc(=O)n(-c2cccc(-c3cnnn3C)c2)n1)c1cc(N)cc(C(F)(F)F)c1` [Example 369, N-[(1R)-1-[3-amino-5-(trifluoromethyl)phenyl]ethyl]-1-[3-(3-methyltriazol-4-yl)phenyl]-6-oxo-pyridazine-3-carboxamide]: the IC50 was below 1000 nM.
Next, `C[C@@H](NC(=O)c1ccc(=O)n(-c2cc(-c3cnnn3C)ccc2F)n1)c1cccc(C(F)(F)CO)c1F` [Example 372, N-[(1R)-1-[3-(1,1-difluoro-2-hydroxy-ethyl)-2-fluoro-phenyl]ethyl]-1-[2-fluoro-5-(3-methyltriazol-4-yl)phenyl]-6-oxo-pyridazine-3-carboxamide]: below 1000 nM.
